Laboratory results reported in ChEMBL document CHEMBL1250514, “Fragment-based drug discovery applied to Hsp90. Discovery of two lead series with high ligand efficiency” (J Med Chem, 2010).

Target: Heat shock protein HSP90 (Homo sapiens, UniProt P07900+P08238)
Description: Binding affinity to human N-terminal ATPase domain of Hsp90 by isothermal titration calorimetry

SMILES | Kd
CCN(CC)C(=O)c1cc(C(C)C)ccc1O | 51 µM
CCc1cc(C(=O)N(CC)CC)ccc1O | 45 µM
CC(C)(C)c1cc(C(=O)N2CCN(c3ccccn3)CC2)ccc1O | 0.25 µM
CCN(CC)C(=O)c1cc(C(C)(C)C)ccc1O | 134 µM
CCN(CC)C(=O)c1ccc(O)c(C(C)C)c1 | 7 µM
CC(C)c1cc(C(=O)N2Cc3ccccc3C2)ccc1O | 0.068 µM
CCN(CC)C(=O)c1ccc(O)c(Cl)c1 | 1130 µM
Nc1nc(Cl)cc(-c2ccccc2)n1 | 2 µM
Nc1nc(Cl)cc(-c2ccccc2Cl)n1 | 0.083 µM
CC(C)c1cc(C(=O)N2CCOCC2)c(O)cc1O | 0.011 µM
COc1cc(-c2cc(Cl)nc(N)n2)c(Cl)cc1Cl | 0.0063 µM
COc1ccc(-c2cc(Cl)nc(N)n2)c(Cl)c1 | 0.028 µM
CC(C)c1cc(C(=O)N2CCOCC2)ccc1O | 0.4 µM

More lines, now with the values ahead:

Kd | SMILES
8.6 µM | CCN(CC)C(=O)c1ccc(O)c(C(C)(C)C)c1
0.128 µM | CC(C)c1cc(C(=O)N2CCc3ccccc3C2)ccc1O
0.036 µM | COc1cccc(Cl)c1-c1cc(Cl)nc(N)n1
2.5 µM | CC(C)(C)c1cc(C(=O)N2CCc3ccccc3C2)ccc1O
0.012 µM | Nc1nc(Cl)cc(-c2ccc(Cl)cc2Cl)n1
2.5 µM | CC(=O)N1CCN(C(=O)c2ccc(O)c(C(C)(C)C)c2)CC1
0.048 µM | COc1ccc(Cl)c(-c2cc(Cl)nc(N)n2)c1
0.068 µM | COc1cccc(OC)c1-c1cc(Cl)nc(N)n1
2.3 µM | CC(C)(C)c1cc(C(=O)N2CCC(O)CC2)ccc1O
